According to US6407029B1, “Mixtures comprising tetrakis(pyrrolidino/piperdino)phosphonium salts” (priority 1999, dated 2002):

Experiment: dermal toxicity
Format: in vivo
Conditions: species and method not stated

SMILES | dermal toxicity
CCN(CC)[P+](N(CC)CC)(N(CC)CC)N(CC)CC.[Br-] [tetrakis(diethylamino)phosphonium bromide, reference compound] | < 50 mg/kg body weight
C1CCN([P+](N2CCCCC2)(N2CCCCC2)N2CCCCC2)CC1.[Cl-] [tetrakis(piperidino)phosphonium chloride] | ~200 mg/kg body weight
C1CCN([P+](N2CCCC2)(N2CCCC2)N2CCCC2)C1.[Cl-] [tetrakis(pyrrolidino)phosphonium chloride] | ~390 mg/kg body weight
